Like-named read-outs stand apart in the source and are kept apart here.
Columns and labels:
[1] = system: PPARα/GR chimeric receptors
Experimental: (§1) Cells containing chimeric receptors for the rat, mouse and human PPARα ligand binding domain and rat GR DNA binding domain, as well as control cells, were examined for CH induction by clofibrate in the presence of LPS and spironolactone during clofibrate treatment. Incubations contained 5 ug/ml E. coli lipopolysaccharide and 10 uM spironolactone and were uncorrected for cell progression. Incubations were performed under the same conditions as described above. […] Cells were grown in a volume of 0.2 ml in the wells of a 96 well microtiter plate from an initial cell density of 5×10^5 cells per ml. […] The T194, T194/T144 and T194/EH#7 cell lines contain the mouse PPARα cDNA.

mouse PPARα = target: T1, mouse PPARα (Mus musculus, UniProt P23204); assay: Native PPARα / PPRE CYP2A6 reporter, coumarin 7-hydroxylase induction; settings: for fold induction at 1100 µM: 1.1 mM clofibrate vs basal; for maximal fold induction: read-out: Maximum Fold Induction, clofibrate-induced CYP2A6 activity
T1 sequence (P23204 1-468): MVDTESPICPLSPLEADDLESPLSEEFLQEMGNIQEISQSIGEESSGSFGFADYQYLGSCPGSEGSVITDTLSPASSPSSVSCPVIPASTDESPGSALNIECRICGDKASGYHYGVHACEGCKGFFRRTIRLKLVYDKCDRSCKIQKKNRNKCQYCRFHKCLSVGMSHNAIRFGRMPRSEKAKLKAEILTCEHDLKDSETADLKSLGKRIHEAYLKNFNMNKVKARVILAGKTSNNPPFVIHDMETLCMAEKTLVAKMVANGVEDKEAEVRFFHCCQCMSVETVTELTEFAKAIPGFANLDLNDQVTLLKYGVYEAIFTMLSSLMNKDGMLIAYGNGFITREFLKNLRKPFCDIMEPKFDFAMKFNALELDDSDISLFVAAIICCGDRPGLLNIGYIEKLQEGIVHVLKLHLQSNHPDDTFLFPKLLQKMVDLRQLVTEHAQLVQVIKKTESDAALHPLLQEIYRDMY
Experimental: (§2) MMTV-LTR1 is native, MMTV-LTR2 is minus CpG, MMTV-LTR3 is TATA only. Orientation is relative to reporter. CH activity is pmole per 10^6 cell min. Assuming the cells double every 24 hours, the maximium cell density is 2×10^6 cells per ml, using the log average cell concentration for each day of exposure. Earliest post fusion-values were used. […] It is merely a concentration in the monotonic portion of the dose response curve which has been used consistently in many experiments.
The comparison was performed by incubating 0.2 ml cells for 3 days in the wells of a microtiter plate at an initial cell concentration of 5×10^5 cells per ml in the presence of increasing amounts of inducer and 50 uM coumarin.
(§3) In this test we used an initial cell concentration of 2 million cells/ml contained in 0.2 ml culture medium per well of a 96 well microtiter plate. Coumarin (0.05 mM) and clofibrate (concentration was an experimental variable) were added at the beginning of the incubation time. Cells were incubated for 3 days and the 7-hydroxycoumarin content in the wells was analyzed by fluorescence with excitation at 360 nm and emission at 460 nm using a Cytofluor 2350 (Millipore). […] The elevation in pH increases 7-hydroxycoumarin fluorescence by increasing the proportion of the fluorochrome which is ionized. Quantitation was achieved by comparison to a 7-hydroxycoumarin standard curve.
The ACO-PPRE constructs were centrifuged and resuspended at a density of 2 million cells per milliliter in RPMI media with 9% horse serum. One hundred microliters of the cell suspension was distributed into a total of four rows, two rows being at the opposite end of a 96 well microtiter plate. One set was labeled as clofibrate and the other set was labeled as the blank. Clofibrate was then added at concentration of 3 mM, 2 mM, 1 mM, 0.5 mM & 0 mM to the appropriate wells. Stock concentration of clofibrate was 50 mM in 75 mM NaOH. One hundred microliters of media containing 100 micromolar coumarin was then added to the clofibrate containing wells. The negative control contained cell suspension and 100 uM coumarin only. The plates were placed at […] for three days. In a distinct set of wells, one hundred microliters of hydroxy-coumarin standard was placed in two rows The concentrations are in units of pmoles and the values are: 1250, 625, 313, 156, 78, 39, 19.5 & 0. At the end of the three day incubation period, one hundred microliters of media containing 100 uM coumarin was added to the wells labeled as blank. Next 0.1M Tris pH 9.0 was distributed to the contents of each well. Fluorescence was analyzed with a cytofluor 2350 (Millipore) with excitation at 360 nm and emission at 460 nm (both filters with a 40 nm bandwidth). The net fluorence was calculated by subtracting the fluorescence of the blank wells from the fluorescence of the test wells for each clofibrate concentration. Conversion to pmole product per well was accomplished by comparison to the fluorescence of the standards. The responsiveness of the different constructs to clofibrate induction was measured immediately after viable, hygromycin resistant cells were obtained and periodically thereafter in order to evaluate the stability of the system. The data were graphed as the fold induction relative to the without clofibrate control incubation. This is a measure of the responsiveness of the system and corrects for differences in the negative control values for the different reporter constructs.

hPPAR = target: T2, hPPAR (Homo sapiens, UniProt Q07869); assay: cell-based; settings: 1.1 mM clofibrate vs basal
T2 sequence (Q07869 1-468): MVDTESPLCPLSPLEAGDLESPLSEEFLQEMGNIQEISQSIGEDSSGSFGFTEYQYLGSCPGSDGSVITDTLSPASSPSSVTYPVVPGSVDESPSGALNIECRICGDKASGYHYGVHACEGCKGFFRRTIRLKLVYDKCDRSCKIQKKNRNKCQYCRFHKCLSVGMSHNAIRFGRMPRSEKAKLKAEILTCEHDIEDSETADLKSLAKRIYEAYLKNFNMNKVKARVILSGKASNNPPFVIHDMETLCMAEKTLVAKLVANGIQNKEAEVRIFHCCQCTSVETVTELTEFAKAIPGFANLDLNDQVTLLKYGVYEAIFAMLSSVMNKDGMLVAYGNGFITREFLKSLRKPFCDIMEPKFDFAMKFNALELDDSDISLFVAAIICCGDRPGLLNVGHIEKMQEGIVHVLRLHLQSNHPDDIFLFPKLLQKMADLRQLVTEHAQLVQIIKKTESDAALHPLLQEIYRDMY
Experimental: as §2

[2] = system: reporter construct without PPARα; assay: CYP2A6 reporter in control cells without PPARα or chimeric receptor; settings: for fold induction at 1100 µM: Homo sapiens, 1.1 mM clofibrate vs basal
Experimental: as §1, §2
The above-described assay conditions were used and the results were normalized to the respective basal expression levels.
as §3

AHH-1 TK± cells = system: AHH-1 TK± cells
Text: The reporter gene expression as reported in previous tables and figures is expressed as pmoles product/well in a 96 well microtiter plate as measured fluorometrically. […] A toxicity curve reflecting the relative number of cells/well present at the end of treatment was obtained as a function of chemical concentration. […] This suppression can be corrected for by determining the cell concentration in the well or by determining the suppression of CH activity in a cell line which constitutively expresses the reporter.

CCOC(=O)C(C)(C)Oc1ccc(Cl)cc1 [clofibrate]
7-hydroxycoumarin production by cell lines containing the chimeras [1]: very small but detectable, concentration-dependent increase | CYP2A6-catalyzed coumarin 7-hydroxylase activity upon treatment of the cells (mouse PPARα): concentration dependent increase | clofibrate-induced activity relative to background levels (mouse PPARα): 3 to 10 times | fold induction after growth in exponential cell culture (mouse PPARα): about 2 fold | fold induction, initial (mouse PPARα): 4 to 6 fold | increase in CYP2A6 expression after exposure to clofibrate (mouse PPARα): greater than 10 fold | potency rank on a molar basis (mouse PPARα): then clofibrate | ranking of chemicals of known ability to induce peroxisome proliferation (mouse PPARα): correctly rank | reporter gene expression, concentration response (mouse PPARα): concentration-dependent increases | signal-to-noise ratio (mouse PPARα): about 10 | fold induction at 1100 µM (mouse PPARα; read-out: Coumarin Hydroxylase Activity Induced (Fold), cell line 7.10/T225, receptor orientation 3'-5' (HSVtk mPPAR; SV40, JCO, HSVtk#7)): 0.9 | fold induction at 1100 µM (mouse PPARα; read-out: Coumarin Hydroxylase Activity Induced (Fold), cell line 7.3/T225, receptor orientation 3'-5' (HSVtk mPPAR; SV40, JCO, HSVtk#7)): 0.9 | fold induction at 1100 µM (mouse PPARα; read-out: Coumarin Hydroxylase Activity Induced (Fold), cell line 7.3/T225, receptor orientation 5'-3' (HSVtk mPPAR; SV40, JCO, HSVtk#7)): 1.5 | fold induction at 1100 µM (mouse PPARα; read-out: Coumarin Hydroxylase Activity Induced (Fold), cell line T194 (SV40 3'-5' mPPAR; HSVtk-OCT, ACO, HSVtkL15)): 1.5 | fold induction at 1100 µM (mouse PPARα; read-out: Coumarin Hydroxylase Activity Induced (Fold), cell line T194/HSVtk#7 (SV40 3'-5' mPPAR; SV40, ACO, HSVtk#7)): 3.3 | fold induction at 1100 µM (mouse PPARα; read-out: Coumarin Hydroxylase Activity Induced (Fold), cell line T194/T144 (SV40 3'-5' mPPAR; SV40, ACO, MMTV-LTR3)): 1.2 | fold induction at 1100 µM (mouse PPARα; read-out: Coumarin Hydroxylase Activity Induced (Fold), cell line T247 (HSVtk 3'-5' mPPAR; HSVtk-OCT, JCO, HSVtkL15)): 1.2 | maximal fold induction (mouse PPARα; high copy number reporter, vector T144/194, clone 6-1, sequential independent determinations): 1.57 | maximal fold induction (mouse PPARα; high copy number reporter, vector T144/194, clone 6-3, sequential independent determinations): 1.17 | maximal fold induction (mouse PPARα; high copy number reporter, vector T144/194, clone 6-4): 1.36 | maximal fold induction (mouse PPARα; high copy number reporter, vector T194EH#7, clone 8-1): 1.04 | maximal fold induction (mouse PPARα; high copy number reporter, vector T194EH#7, clone 8-5, sequential independent determinations): 1.27 | maximal fold induction (mouse PPARα; high copy number reporter, vector T194EH#7, clone 8-11): 1.15 | maximal fold induction (mouse PPARα; high copy number reporter, vector T194EH#7, clone 8-12): 1.21 | maximal fold induction (mouse PPARα; high copy number reporter, vector T194EH#7, clone 8-14): 1.15 | maximal fold induction (mouse PPARα; vector T194EH#7, clone 8-6 (probably no functional high copy reporter)): 3.44 | maximal fold induction (mouse PPARα; vector T194EH#7, clone 8-16 (probably no functional high copy reporter)): 3.73 | fold induction at 1100 µM (hPPAR; read-out: Coumarin Hydroxylase Activity Induced (Fold), cell line T248 (HSVtk 3'-5' hPPAR; HSVtk-OCT, JCO, HSVtkL15)): 0.9 | fold induction at 1100 µM (hPPAR; read-out: Coumarin Hydroxylase Activity Induced (Fold), cell line T249 (HSVtk 3'-5' hPPAR; HSVtk-OCT, JCO, HSVtkL15)): 1.1 | 7-hydroxycoumarin production in control cells [2]: No increase | clofibrate induction of CH activity in cells containing the reporter alone [2]: did not respond | induction of 7-hydroxycoumarin production in the absence of the PPARα [2]: no induction | fold induction at 1100 µM ([2]; read-out: Coumarin Hydroxylase Activity Induced (Fold), cell line T192 (no receptor; HSVtk-OCT, ACO, HSVtkL15)): 0.8 | fold induction at 1100 µM ([2]; read-out: Coumarin Hydroxylase Activity Induced (Fold), cell line T192/T144 (no receptor; HSVtk-OCT, ACO, MMTV-LTR3)): 0.7 | fold induction at 1100 µM ([2]; read-out: Coumarin Hydroxylase Activity Induced (Fold), cell line T245 (no receptor; HSVtk-OCT, JCO, HSVtkL15)): 0.9 | difference in toxicity among cell lines (AHH-1 TK± cells): No differences in toxicity | toxicity to the cells (AHH-1 TK± cells): toxic
